Entries after “also recorded” stand apart in the source; their conditions may differ.
Key:
[1] = system: F-11 (neuronal) cells; test: Dose dependent cytotoxicity towards F-11 neuronal cells; assay type: cell-based; conditions: F11 cells, 24 hour incubation; for cytotoxicity: up to 20 μM
Experimental: FIG. 4 Dose dependent cytotoxicity of Dicannabidiol (diCBD) adipate and AM1241 towards F-11 (neuronal) cells after 24 hour incubation.

[2] = system: activated bone marrow macrophages; test: Anti-inflammatory response, pro-inflammatory marker gene expression; assay type: cell-based; conditions: for IL-1B gene expression / IL-6 gene expression / Nos2 gene expression / TNF-α gene expression: 20 μM
Description: FIG. 5 Anti-inflammatory efficacy of Dicannabidiol (diCBD) adipate and AM1241 towards inflamed bone marrow macrophages.
AM1241 was used as comparison due to its commercial availability.

[3] = Degradation study: thermal and UV light; assay type: physicochemical
Experimental: A degradation study was conducted in two parts: thermal degradation and UV light degradation. In the thermal degradation study, the Dicannabidiol adipate was heated to 175° C. in aerobic and anaerobic conditions and the changes were monitored by 1H NMR spectroscopy. In the UV light exposure study, a sample of Dicannabidiol adipate was kept under environmental conditions and UV light for several days and was constantly monitored by 1H NMR spectroscopy. From the results of the two experiments, it was concluded that the Dicannabidiol adipate is stable against the degradation caused from heat and UV exposure. […] This limits its misuse and abuse. Further, this indicates there will be no need to refrigerate the CBD-adipate dimer drug, and less issues, compared to CBD, with its shipping/handling.

[4] = Solubility study at different pHs; assay type: physicochemical; conditions: 1 mg in 1 mL of water and ethanol, pH 1 to pH 12
Experimental: A solubility study was conducted on the Dicannabidiol adipate at different pHs. Twelve vials were prepared by placing 1 mg of the dimer in 1 mL of water and ethanol of different pH, from pH 1 to pH 12. […] The hypothesis for the dimer being soluble in basic water is due to the bonding of the base with the phenolic oxygen of the dimer, thus producing the salt and easily solubilizing in water. […] Adipic acid is widely used in food and medicinal applications and is considered compatible and safe in the human body.

[5] = system: rat osteoarthritis model; test: Rat osteoarthritis model (monoiodo acetate), mechanical allodynia; assay type: in vivo
Experimental: Briefly, baseline behavioral measurements were quantified prior to induction of osteoarthritis. Monoiodo acetate was used to induce osteoarthritis via intra-articular injection into the rear right knee joint followed 24 hours later by a single intra-articular injection of the designated treatment group (FIG. 9).

SMILES | cytotoxicity [1] | IL-1B gene expression [2] | IL-6 gene expression [2] | Nos2 gene expression [2] | TNF-α gene expression [2] | cell viability ([1]; 20 μM) | cytotoxicity ([1]; listed as CBD-adipate dimer) | stability against degradation caused from UV exposure ([3]; environmental conditions and UV light for several days, monitored by 1H NMR) | stability against degradation caused from heat ([3]; heated to 175° C., aerobic and anaerobic, monitored by 1H NMR) | degradation into psychoactive molecules such as THC ([3]; thermal) | solubility in acidic conditions ([4]; acidic) | solubility in basic pH ([4]; basic) | anti-inflammatory effect in vitro [2] | pain level after the anesthetic action, versus initial pain ([5]; after drug is no longer active) | pain free duration ([5]; rat model of osteoarthritis) [days]
CN1CCCCC1Cn1cc(C(=O)c2cc([N+](=O)[O-])ccc2I)c2ccccc21 (centres unmarked) [AM1241, reference compound] | significantly increased cytotoxicity | significantly downregulate | significantly downregulate | significantly downregulate | Neither of these drugs showed any significant effect |  |  |  |  |  |  |  |  |  | 
C=C(C)[C@@H]1CCC(C)=C[C@H]1c1c(O)cc(CCCCC)cc1OC(=O)CCCCC(=O)Oc1cc(CCCCC)cc(O)c1[C@@H]1C=C(C)CC[C@H]1C(=C)C [Dicannabidiol adipate] | minimal cytotoxicity; also recorded: no cytotoxicity; also recorded: minimal toxicity | significantly downregulate; also recorded: significant reduction | significantly downregulate; also recorded: significant reduction | significantly downregulate; also recorded: significant reduction | Neither of these drugs showed any significant effect | above 80% | minimal dose dependent cell toxicity | stable | stable | does not degrade | not soluble | solubilizes | potent anti-inflammatory effect |  | 
CCCN1CCCC[C@H]1C(=O)Nc1c(C)cccc1C [Ropivacaine] |  |  |  |  |  |  |  |  |  |  |  |  |  | more pain | 2

From US20250325567A1, “COADMINISTRATION OF POLYC[…] AMINE/AMIDE A[…] ENHANCE EFFICACY AGAINST PAIN” (University of Connecticut, priority 2024, published 2025)
